The test system of series [1] is men with androgen-independent prostate cancer. Nature of the series: Docetaxel-induced peripheral neuropathy by ABCB1 2677 genotype. The note with it: docetaxel 30 mg/m2 iv weekly for 3 consecutive weeks. The series is classed as in vivo, human. The method, then:
(§1) ABCB1 genotypes were evaluated in patients from a trial involving 73 men with androgen-independent prostate cancer that were treated with either docetaxel alone or docetaxel in combination with thalidomide. Patients were administered docetaxel intravenously (30 mg/m2) over 1 hour every week for 3 consecutive weeks (n=23). Some patients additionally received 200 mg of thalidomide orally each day (n=50). Toxicity was defined by Cancer Therapy Evaluation Program/National Cancer Institute Common Toxicity Criteria (version 2.0) and patients were evaluated for symptoms of toxicity weekly.

The test system is the same in series [2]. Nature of the series: Clinical grade of neutropenia in docetaxel-treated patients by ABCB1 genotype. The series is classed as in vivo, human. As for the experimental part: as §1
A short description of series [3]: Paclitaxel pharmacokinetics in plasma of treated subjects by ABCB1 genotype. Particulars: for AUCp, area under the curve of total paclitaxel, Median (95% CI) / AUCu, area under the curve of unbound paclitaxel, Median (95% CI) / T > 0.05 μM, duration of total plasma concentration of paclitaxel exceeding 0.05 μM, Median (95% CI): 100 mg/m^2 iv infusion, first administration. As for the experimental part: (§2) Twenty-six subjects were examined. There were 14 male subjects and 12 female subjects with a median age of 59.5 years (range: 42-72). The subjects were treated with weekly one- or three-hour paclitaxel infusions. All subjects had histologically proven, locally advanced or metastatic cancer, for which paclitaxel as monotherapy was a therapeutic option.
(§3) Paclitaxel (30 mg) formulated in a mixture of Cremophor and absolute:ethanol (1:1, vol/vol) (Bristol Myers Squibb, Munich, Germany) was diluted in 500 mL of 5% (weight/vol) dextrose in water and administered to subjects via a peripheral or central venous catheter using a motor-driven programmable infusion pump. Eligible subjects were randomized between a one hour and three hour infusion duration to receive a total of six weekly intravenous infusions of paclitaxel at a dose of 100 mg/m^2. After six weeks of therapy (defined as one cycle) response was evaluated bi-dimensionally, usually by computed tomography. Subjects with a stable disease, partial response or complete response after one cycle received a second cycle, provided toxic effects were not prohibitive.
Blood samples were obtained from the subjects described in Example 1 during the first paclitaxel administration at baseline and at serial time points during and after infusion. Concentrations of total paclitaxel in plasma were determined by a validated method based on reversed-phase high performance liquid chromatography with ultraviolet detection, while unbound paclitaxel plasma concentrations were determined by micro-equilibrium dialysis using a [G-^3H]paclitaxel tracer. Pertinent pharmacokinetic parameters were calculated by non-compartmental methods using WinNonlin® version 5.0 (Pharsight, Mountain View, Calif., USA).
All data are reported as median values with the associated 95% CI, unless specified otherwise. Interindividual pharmacokinetic variability was assessed as the coefficient of variation, and expressed as a percentage. The associations of the variant genotypes with individual pharmacokinetic parameters were evaluated statistically with the nonparametric Kruskal-Wallis test. All P values are two-tailed, and those less than or equal to 0.05 were considered to reflect statistically significant results.

The test system of series [4] is subjects with locally advanced or metastatic cancer. Nature of the series: Cumulative peripheral neuropathy (clinical score >3) during weekly paclitaxel therapy by ABCB1 genotype. The series is classed as in vivo, human. The note with it: weekly paclitaxel 100 mg/m^2, 12 weeks. An excerpt: Twenty-six subjects were examined.
Prior to therapy, and if possible after six and twelve weeks of therapy, these examinations were supplemented by the evaluation of the peripheral neuropathy score, clinical chemistries (serum creatinine, transaminases, alkaline phosphatase, and bilirubin), electrocardiogram analysis and performance status. For the assessment of neurotoxicity a standardized clinical peripheral neuropathy scoring system was used, which included questioning subjects' symptoms, requiring a clinical examination based on a tuning fork test, and an evaluation of strength and peripheral reflexes. This individual clinical score could range from 0 (best) to 12 (worst) points, and based on the inclusion criteria of this trial, peripheral neuropathy was defined as an event when the score exceeded a value of 3 for the first time. A score had to be obtained, at a minimum, prior to and after six and twelve weeks of therapy in order for subjects to be included.
The probability of development of a peripheral neuropathy during paclitaxel therapy as a function of time, according to various genotypes, was analyzed using the Kaplan-Meier method. Statistical significance of the differences between Kaplan-Meier curves was determined using an exact log rank test. […]

For series [5] the test system is unchanged. Particulars: both, human, in vivo. As for the experimental part:
as §2, §3
All data are reported as median values with the associated 95% CI, unless specified otherwise.

[6] abbreviates: of the 15 subjects wild-type for ABCB1 2677G>T/A.
[7] abbreviates: subjects carrying at least one variant allele at ABCB1 2677.
Setting [8] is: genotype 2677TT + 3435TT, 11 patients in total.
The mark [9] stands for this setting: other ABCB1 genotypes, 39 patients in total.
Where [10] appears, read: ABCB1 1236C>T heterozygous (N=17).
Where [11] appears, read: ABCB1 1236C>T variant (N=4), range quoted instead of 95% CI.
Setting [12] is: ABCB1 1236C>T wild-type (N=5), range quoted instead of 95% CI.
[13] abbreviates: ABCB1 2677G>T heterozygous (N=13).
Where [14] appears, read: ABCB1 2677G>T wild-type (N=2), range quoted instead of 95% CI.
Setting [15] is: ABCB1 3435C>T heterozygous (N=14).
Setting [16] is: ABCB1 3435C>T wild-type (N=4), range quoted instead of 95% CI.

The structures appear in SMILES notation. Marks after values point to notes of the source that are not given here.

For the compound `CC(=O)O[C@@]12CO[C@@H]1C[C@H](O)[C@@]1(C)C(=O)[C@H](O)C3=C(C)[C@@H](OC(=O)[C@H](O)[C@@H](NC(=O)OC(C)(C)C)c4ccccc4)C[C@@](O)([C@@H](OC(=O)c4ccccc4)[C@H]21)C3(C)C` [docetaxel, (2R,3S)—N-carboxy-3-phenylisoserine,N-tert-butyl ester, 13-ester with 5β-20-epoxy-1,2α,4,7β,10β,13α-hexahydroxytax-11-en-9-one 4-acetate 2-benzoate, trihydrate], in series [1] (setting [6]), the “subjects who developed peripheral neuropathy during the observation period” value came to 11 subjects and the “subjects who did not develop peripheral neuropathy during the observation period” value is on record as 4 subjects. For the same compound, in series [1] (setting [7]), the “subjects who developed peripheral neuropathy during the observation period” value is 32 of 35 and the “subjects who did not develop peripheral neuropathy during the observation period” value was 3 of 35. In series [2] (setting [8]), the “# Patients with Clinical Grade of Neutropenia, Grade 0” value worked out at 8 patients; the “# Patients with Clinical Grade of Neutropenia, Grade 2” value came to 0 patients; the “# Patients with Clinical Grade of Neutropenia, Grade 3” value was determined as 3 patients. In series [2] (setting [9]), the “# Patients with Clinical Grade of Neutropenia, Grade 0” value was found to be 35 patients; the “# Patients with Clinical Grade of Neutropenia, Grade 2” value is 3 patients; the “# Patients with Clinical Grade of Neutropenia, Grade 3” value was found to be 1 patients.
With `CC(=O)O[C@H]1C(=O)[C@@]2(C)[C@H]([C@H](OC(=O)c3ccccc3)[C@]3(O)C[C@H](OC(=O)[C@H](O)[C@@H](NC(=O)c4ccccc4)c4ccccc4)C(C)=C1C3(C)C)[C@]1(OC(C)=O)CO[C@@H]1C[C@@H]2O` [paclitaxel, 5β,20-Epoxy-1,2α,4,7β,10β,13α-hexahydroxytax-11-en-9-one 4,10-diacetate 2-benzoate 13-ester with (2R,3S)—N-benzoyl-3-phenylisoserine], in series [3] (26 subjects, ABCB1 1236C>T, 2677G>T, 3435C>T, Kruskal-Wallis test), the “association of ABCB1 genotypes with paclitaxel pharmacokinetic parameters” value is on record as “none of the studied ABCB1 genotypes were associated with interindividual differences”. The “AUCp, area under the curve of total paclitaxel, Median (95% CI)” value in series [3] (setting [10]) is listed as 5264 (3879-6235) (ng/mL) × hr; in series [3] (setting [11]), 3547 (2309-5600) (ng/mL) × hr; in series [3] (setting [12]), 4657 (2909-9916) (ng/mL) × hr; in series [3] (setting [13]), 5146 (3776-7762) (ng/mL) × hr; in series [3] (ABCB1 2677G>T variant (N=11)), 4203 (2309-5600) (ng/mL) × hr; in series [3] (setting [14]), 3348 (2909-3787) (ng/mL) × hr. Also, the “AUCp, area under the curve of total paclitaxel, Median (95% CI)” value in series [3] (setting [15]) was 5485 (3787-6344) (ng/mL) × hr; in series [3] (ABCB1 3435C>T variant (N=8)) it was 3656 (2259-5600) (ng/mL) × hr; in series [3] (setting [16]) it was 4534 (2909-5146) (ng/mL) × hr. The “AUCu, area under the curve of unbound paclitaxel, Median (95% CI)” value is reported as 470 (445-519) (ng/mL) × hrs in series [3] (setting [10]); 407 (362-522) (ng/mL) × hrs in series [3] (setting [11]); 482 (371-641) (ng/mL) × hrs in series [3] (setting [13]); 445 (362-516) (ng/mL) × hrs in series [3] (ABCB1 2677G>T variant (N=11)); 540 (507-572) (ng/mL) × hrs in series [3] (setting [14]); 512 (432-523) (ng/mL) × hrs in series [3] (setting [15]). The “AUCu, area under the curve of unbound paclitaxel, Median (95% CI)” value in series [3] (ABCB1 3435C>T variant (N=8)) is on record as 448 (362-522) (ng/mL) × hrs; in series [3] (setting [16]) it was 420 (313-572) (ng/mL) × hrs. Besides, the “T > 0.05 μM, duration of total plasma concentration of paclitaxel exceeding 0.05 μM, Median (95% CI)” value in series [3] (ABCB1 1236C>T heterozygous (N=17, one patient without data)) was 15.6 (9.3-19.3)* hours; in series [3] (setting [11]) it was 15.6 (8.8-24.9) hours; in series [3] (setting [12]) it was 20.3 (8.8-34.2) hours; in series [3] (ABCB1 2677G>T heterozygous (N=13, one patient without data)) it was 17.3 (9.6-20.7)* hours; in series [3] (ABCB1 2677G>T variant (N=11)) it was 12.6 (8.8-19.8) hours; in series [3] (setting [14]), 15.1 (8.8-21.3) hours. In addition, the “T > 0.05 μM, duration of total plasma concentration of paclitaxel exceeding 0.05 μM, Median (95% CI)” value in series [3] (ABCB1 3435C>T heterozygous (N=14, one patient without data)) is given as 19.8 (10.5-21.3)* hours; in series [3] (ABCB1 3435C>T variant (N=8)) it was 13.7 (8.7-18.9) hours. Besides, in series [4] (four subjects wild-type for ABCB1 3435C>T (3435CC)), the “development of peripheral neuropathy during the observation period” value is given as “did not develop peripheral neuropathy”. For the same compound, in series [4] (subjects carrying at least one variant allele at ABCB1 3435 (CT or TT)), the “subjects who developed peripheral neuropathy” value is recorded as 17 of 18. For the same compound, in series [5], the “fold greater percent decrease in neutrophil count at nadir, double variant versus rest of the population” value is listed as “approximately 1.5 fold”.

The record behind these values is patent US8835115B2, “ABCB1 genotyping to predict microtubule-stabilizing-agent-induced toxicity” (The United States of America as represented by the …, priority 2006, dated 2014).
